The values below are quoted from earlier work in patent publication US12151031B2, “Topical copper tripeptide composition” (YUVAN RESEARCH, INC., priority 2018, dated 2024).

For the series the following is noted: in vivo.

Turning to “glycyl-histidyl-lysin tripeptide in the form of its Cu Complex [GHK-Cu]”, the Elimination half-life is 1.5 to 2 h.
